Here are results for seven compounds from patent US20030114375A1, “Method for treating cystic fibrosis” (The Government of the USA, Dept of Health and Human …, priority 1994, published 2003).

The target in one experiment is T1, A2a-adenosine receptor (Rattus norvegicus, UniProt P30543).
T1 construct: Rat cerebral cortical membranes and striatal membranes were prepared; from tissue; host or cells: rat striatal membranes
The experiment in a line: Inhibition of [3H]CGS 21680 binding to A2a receptors. As to conditions: rat striatal membranes, 5 nM [3H]CGS 21680; read-out: Ki, μM(A2). On the procedure: (§1) Solid samples of the adenosine derivatives were dissolved in dimethyl sulfoxide (DMSO) and stored in the art at. −20° C. The stock solutions were diluted with DMSO to a concentration of ≦0.1 mM prior to addition to the aqueous medium. The final concentration of DMSO in the assay medium was generally 2%.
Membranes (^˜80 μg protein per tube) were incubated for one hour at 25° C. in a total volume of 0.5 ml of a buffer solution consisting of […] tris hydrochloride and 10 mM MgCl2 at pH 7.4. Test drugs were dissolved in DMSO and added in 10 μl aliquots, resulting in a final DMSO concentration of 2%. Non-specific binding was defined using 20 μM 2-chloroadenosine. Filtration was carried out using a Brandel Cell Harvester, as above, using the tris.HCl/MgCl2 buffer recited hereinabove as the washing buffer.
(§2) At least six different concentrations spanning three orders of magnitude, adjusted appropriately for the IC50 of each compound, were used.

The target of a further experiment is T2, Iα polypeptide (Homo sapiens, UniProt P13569).
T2 construct: made in house; host or cells: chemical solid-phase synthesis (Yale University)
T2 sequence (P13569 with tags, fused parts or gaps): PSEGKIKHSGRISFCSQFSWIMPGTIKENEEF
The experiment in a line: Phosphatidylserine liposome aggregation driven by Iα polypeptide. Type of experiment: biochemical. The conditions noted are these: 0.5 μg/ml (0.18 μM) Iα; for Effect on PS liposome aggregation driven by Iα: 2-thio-CPX up to 1 μM, IBMX up to 15 μM. As for the experimental part: Liposome aggregation assay: Phosphatidylserine (“PS”, obtained from Avanti) was dissolved in chloroform, and small unilamellar liposomes were prepared by the extrusion process known in the art. A Lipex machine was used to extrude the PS in a buffer consisting of 10 mM Na-HEPES, pH 7.2 and 1 mM EDTA. The liposomes were diluted to a final optical density at 540 nm of 0.01 and incubated with different concentrations of the different polypeptides and/or chloride ion efflux-activating compounds.

A further experiment has as its target T3, A1-adenosine receptor (Rattus norvegicus, UniProt P25099).
T3 construct: Rat cerebral cortical membranes and striatal membranes were prepared; from tissue; host or cells: rat cerebral cortex membranes
T3 sequence (P25099 1-326): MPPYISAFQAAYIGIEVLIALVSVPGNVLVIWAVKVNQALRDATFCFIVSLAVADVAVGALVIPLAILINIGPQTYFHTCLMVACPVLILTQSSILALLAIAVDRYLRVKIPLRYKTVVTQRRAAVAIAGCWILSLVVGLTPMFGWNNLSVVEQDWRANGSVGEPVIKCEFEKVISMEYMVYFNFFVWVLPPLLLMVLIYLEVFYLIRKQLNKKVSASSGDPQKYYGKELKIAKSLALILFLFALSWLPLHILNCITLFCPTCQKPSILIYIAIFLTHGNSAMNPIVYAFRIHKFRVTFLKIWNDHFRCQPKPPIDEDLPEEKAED
Briefly: Inhibition of [3H]N6-phenylisopropyladenosine binding to A1 receptors. As to conditions: for Ki: rat cerebral cortex membranes, 1 nM [3H]PIA, read-out: Ki, μM(A1). As for the experimental part: as §1
Inhibition of binding of 1 nM [^3H]N^6-phenylisopropyladenosine (Dupont NEN, Boston, Mass.) to A1 receptors in rat cerebral cortex membranes was measured as described in Schwabe et al., Naunyn-Schmiedeberg's Arch. […] Membranes (^˜100 μg protein per tube) were incubated for 1.5 hours at 37° C. in a total volume of 0.5 ml of 50 mM tris hydrochloride at pH 7.4. Test drugs were dissolved in DMSO and added in 10 μl aliquots, resulting in a final DMSO concentration of 2%. Bound and free radioligand were separated by addition of 3 ml of a buffer containing 50 mM tris hydrochloride, at pH 7.4 at 5° C., followed by vacuum filtration using a Brandel Cell Harvester (Brandel, Gaithersburg, Md.) and a Whatman GF/B glass fiber filter with additional washes totaling 9 ml of buffer. Non-specific binding was determined with 10 μM 2-chloroadenosine.
as §2

For experiment [1], the system named is CFPAC cells. As to conditions: U.S. Pat. No. 5,366,977 / Eidelman et al.; cited from earlier work.
Experiment [2] has as its system CFPAC cells. The experiment in a line: [36Cl]- efflux from CFPAC cells.
The target in experiment [3] is T4, CFTR polypeptide Iα [SEQ ID NO:1] (Homo sapiens, UniProt P13569).
T4 construct: made in house; host or cells: chemical solid-phase synthesis (Yale University)
T4 sequence (P13569 with tags, fused parts or gaps): as the sequence (P13569 with tags, fused parts or gaps) above
Briefly: 3H-CPX binding to Iα polypeptide (dot blot filter binding, displacement). As for the experimental part:
CPX was used as a representative compound known to activate chloride ion efflux from ΔF508 mutant cells. Stock solutions of CPX were prepared in DMSO in the millimolar concentration range. […] For displacement studies, unlabeled CPX, or other xanthine antagonists and nucleotides, were added to the incubation mixture before the radioactive probe. The mixture was then filtered through a nitrocellulose (NC) membrane (Schleicher & Schuell) by using a standard dot blot apparatus. […] The dot blots were then washed five times with 200 μl TRIS buffer-NaCl solutions (50 mM TRIS pH=7.0, 150 mM NaCl), radioactive spots were cut out, and the total was radioactivity determined by liquid scintillation counting.

Experiment [4] concerns CFPAC cells. As to conditions: read from the graphs.

Values joined by “and” are separate entries in the source; they are usually repeats but may differ in a detail not shown here. Identical values can stand only once. Like-named read-outs stand apart in the source and are kept apart here.

T1 sequence (P30543 whole entry): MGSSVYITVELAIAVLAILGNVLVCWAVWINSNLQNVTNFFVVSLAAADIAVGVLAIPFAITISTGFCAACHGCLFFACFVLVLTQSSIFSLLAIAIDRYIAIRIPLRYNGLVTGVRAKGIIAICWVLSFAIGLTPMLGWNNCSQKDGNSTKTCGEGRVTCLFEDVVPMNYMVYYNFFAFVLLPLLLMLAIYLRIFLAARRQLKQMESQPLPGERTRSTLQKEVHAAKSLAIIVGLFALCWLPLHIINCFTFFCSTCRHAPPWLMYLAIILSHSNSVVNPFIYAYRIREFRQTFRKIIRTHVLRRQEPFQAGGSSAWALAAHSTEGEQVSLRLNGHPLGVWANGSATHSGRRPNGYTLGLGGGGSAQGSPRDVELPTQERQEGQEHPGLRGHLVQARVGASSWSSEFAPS

As usually defined, the Ki is the dissociation constant of the complex between target and ligand, obtained from inhibition or displacement. As to `CCCn1c(=O)c2[nH]c(C3CCCC3)nc2n(CCC)c1=S` [Compound 8, 2-thio-8-cylcopentyl-1,3-dipropylxanthine, reference compound], the Ki came to 0.31 µM on A2a-adenosine receptor and 0.00066 µM on A1-adenosine receptor. The “Effect on PS liposome aggregation driven by Iα” value (“Effect … by Iα” for short) on Iα polypeptide was “entirely inactive”. In addition, the “Activation of chloride efflux from CF cells (words, prior disclosure)” value (shortened to “Activation of chloride efflux”) in the experiment with CFPAC cells [1] was “ineffective”. Further, the “Conc. max. (nM): concentration at maximum impact upon chloride efflux” value (from here on “Conc. max. (nM): concentration”) with CFPAC cells [2] is reported as >>10^4 nM. Further, the “Displacement of 3H-CPX binding to Iα” value in experiment [3] is given as “not effected”.

For the compound `Cn1c(=O)c2[nH]c(C3CCCC3)nc2n(C)c1=O` [Compound 4, 1,3-dimethyl-8-cyclopentylxanthine, reference compound], on A1-adenosine receptor, the “Affinity for A1 receptor” value is “highest A1 affinity” and the Ki came out at 0.011 µM. Also, the “Activation of chloride efflux” value with CFPAC cells [1] is listed as “ineffective”. Further, in the experiment with CFPAC cells [2], the “Conc. max. (nM): concentration” value is >>10^4 nM.

Take 3-isobutylmethyl xanthine [Compound 3]: the Ki on A2a-adenosine receptor was found to be 16 µM. The “Effect … by Iα” value on Iα polypeptide is “entirely inactive”. In addition, in experiment [3], the “Displacement of 3H-CPX binding to Iα” value was “not effected”.

On to `Nc1ncnc2c1ncn2[C@@H]1O[C@H](CO)[C@@H](O)[C@H]1O` [Adenosine, adenosine], for which the “Effect … by Iα” value on Iα polypeptide was “modest but evident biphasic effect”.

With `CCCn1c(=O)c2[nH]c(C34CC5CC(CC3C5)C4)nc2n(CCC)c1=O` [Compound 12, 1,3-dipropyl-8-noradamantylxanthine, reference compound], the Ki at A2a-adenosine receptor was found to be 0.38 µM. Also, the Ki at A1-adenosine receptor was found to be 0.0013 µM. Moreover, the “Activation of chloride efflux” value in the experiment with CFPAC cells [1] is on record as “ineffective”. Also, in the experiment on CFPAC cells [2], the “Conc. max. (nM): concentration” value is recorded as 10 nM and the “thresh (nM): minimum concentration required to detect an effect upon chloride efflux” value (“thresh (nM)” for short) was 1 nM. In addition, in the experiment with CFPAC cells [2] (at threshold concentration), the “% control: chloride efflux at minimum detection relative to control” value was 120% and 120 ± 5%.

What is called Kd is the concentration at which binding is half-saturated. In the case of `CCCn1c(=O)c2[nH]c(C3CCCC3)nc2n(CCC)c1=O` [Compound 5, 1,3-dipropyl-8-cyclopentylxanthine, reference compound], the “Concentration at maximum rate and extent of Iα-driven liposome aggregation” value at Iα polypeptide is on record as 100 nM. Further, the “Affinity for A1 receptor” value at A1-adenosine receptor was “high affinity”. Moreover, the “Activation of chloride efflux” value with CFPAC cells [1] is on record as “promotes chloride efflux”. In addition, in the experiment on CFPAC cells [2], the “Conc. max. (nM): concentration” value worked out at 30 nM and the “thresh (nM)” value is given as 1 nM. Moreover, the “Efflux rate as compared to control (FIGS. 9-12)” value in the experiment on CFPAC cells [2] (read from the graphs) was 200%. The “Displacement of 3H-CPX binding to Iα” value in experiment [3] is “Displacement of binding was effected”. For the same compound, the Kd in experiment [3] (Scatchard plot, n=4, 100 nM Iα) was found to be 0.069 ± 0.027 µM.

Turning to `Cn1c(=O)c2[nH]cnc2n(C)c1=O` [Compound 1, theophylline, reference compound], the “Efflux rate as compared to control (FIGS. 9-12)” value with CFPAC cells [4] worked out at 200%. For the same compound, in the experiment with CFPAC cells [2], the “Conc. max. (nM): concentration” value is given as 100 nM and the “thresh (nM)” value is 1 nM.
